Data reported in paper PMC7714403 (JCI Insight, 2020).

How the values were obtained:
JAK2 = biological target: T1, JAK2 (Homo sapiens, UniProt O60674); experiment: KdELECT binding assay
T1 construct: purchased Eurofins DiscoverX

cord blood CD34+ cells = experiment: CFU assay, normal cells; assay type: cell-based, human; conditions: 2 donors
Description: For human primary CFU assays, cells were cultured in MethoCult H4035 Optimum without EPO (Stemcell Technologies). For mouse primary CFU assays, cells were directly cultured in MethoCult M3231 (Stemcell Technologies) supplemented with 45 ng/mL of murine IL-6 (mIL-6), mIL-3, and mSCF. Both human and mouse primary cells 10,000 cells were plated in duplicate for each drug concentration. For cell line CFU assays, MV4-11 cells were treated with drugs in the presence of 20 ng/mL IL-3, GM-CSF, or FGF2. Cells were plated in MethoCult H4230 (Stemcell Technologies) in duplicates at 250 cells/plate. Plates were placed in a 37°C incubator for 7 or 14 days for human cell lines and for mouse or human primary cells, respectively. Colonies were identified as clusters containing 40 or more cells. For CFU assays using human primary CD34^+ cells, umbilical cord blood was obtained from the OSU Comprehensive Cancer Center (CCC) Leukemia Tissue Bank Shared Resource, and mononuclear cells were isolated by using density gradient centrifugation. CD34^+ cells were purified using the CD34 UltraPure MicroBead Kit (Miltenyi Biotec) according to the manufacturer’s instructions. CFU assay with CD34^+ cells was performed as described above, and the total number of colonies were counted after 7–10 days.

HS5 human MSCs = experiment: MTT viability assay of stromal cells; assay type: cell-based
Description: Cell viability of primary samples
HS5-GFP human bone marrow stromal cells were plated and cultured for 72 hours to near confluence.
MOLM13 cells were then seeded onto HS5-GFP cells to establish a co-culture. Twenty-four hours later, cells were treated with increasing concentrations of drug for an additional 72 hours. MOLM13 and HS5-GFP cells were then separated and MTT assay s were performed for cell viability assessment of each cell population.
For murine or human primary AML cells, 100,000 cells/well were plated in a 96-well plate and treated with increasing concentrations of drug. Cell viability, via trypan blue, was measured every 24 hours. If the viability fell below 50% or at 72 hours of treatment, whichever came earlier, cell viability of each plate was measured via CellTiter-Glo. Primary human AML cells were obtained from the OSUCCC Leukemia Tissue Bank Shared […]
For primary human fibroblasts, cells were plated at 10,000 cells/well in a 96-well plate and cultured for 24 hours. After 24 hours, cells were treated with drug for 72 hours. A MTT assay was performed to assess cell […]
Primary AML samples were analyzed by targeted gene sequencing of 80 genes, as previously described (1). Samples were pooled and analyzed on a MiSeq system using the Illuminia MiSeq Reagent Kit v3. Ill umina Isis Banded Smith Waterman aligner and hg19 genome were used to align the sequences. […]

[1] = system: Ba/F3-FLT3-ITD/F691L-GFP+ cells; experiment: Ba/F3 FLT3-ITD/F691L-GFP+ xenograft model; assay type: in vivo, NSG mice; conditions: 60 mg/kg once daily, after 13 days of treatment
Description: Engraftment and growth of leukemic cells were monitored by noninvasive bioluminescence imaging in cell line xenograft models, as previously done ([47]). Details on the cell engraftment and dosing in mouse models are provided in the Supplemental Methods.
Luc+ or MOLM13-Res -Luc+ cells, 0.5 million OCI-AML3 -Luc+ cells, and 10,000 Ba/F3-FLT3-ITD/F691L-GFP+ cells. Weekly tumor engraftment of cell line xenograft models were assessed after injection of D-luciferin (150mg/kg i.p.; Gold Biotechnology, Inc, St. Louis, MO) on Xenogen IVIS-200 imaging system (Perkin Elmer, Waltham, MA) or GFP monitoring by peripheral blood via BD LSR II flow cytometer (BD Biosciences, San Jose, CA). Signal intensity was analyzed using Living Image Software (PerkinElmer) or FlowJo v10.0.08 software (FlowJo, LLC, Ashland, OR). Mice were randomized to treatment groups based on signal intensity and leukemia burden. Drug treatments were started on days 3, 7, or 13 after cell injection in OCI-AML3, MOLM13, and MOLM13-Res xenografts, respectively. In murine AML transplantation model, 1 million FLT3-ITD+/-/IDH2-R140Q+/- splenocytes (in house colony) were intravenously injected in male NSG mice. On day 7, mice were started on drug treatments. All mice were observed daily and humanely euthanized when showing signs of progressive disease including, hind limb paralysis, weight loss more than 20%, and lethargy. […]

CaMK2d = CaMK2d (Homo sapiens, UniProt Q13557); experiment: KiNativ, OCI cells live cell; assay type: cell-based; conditions: 2 h, labeling site Lys1, peptide […]
Chain of CaMK2d (Q13557 whole entry): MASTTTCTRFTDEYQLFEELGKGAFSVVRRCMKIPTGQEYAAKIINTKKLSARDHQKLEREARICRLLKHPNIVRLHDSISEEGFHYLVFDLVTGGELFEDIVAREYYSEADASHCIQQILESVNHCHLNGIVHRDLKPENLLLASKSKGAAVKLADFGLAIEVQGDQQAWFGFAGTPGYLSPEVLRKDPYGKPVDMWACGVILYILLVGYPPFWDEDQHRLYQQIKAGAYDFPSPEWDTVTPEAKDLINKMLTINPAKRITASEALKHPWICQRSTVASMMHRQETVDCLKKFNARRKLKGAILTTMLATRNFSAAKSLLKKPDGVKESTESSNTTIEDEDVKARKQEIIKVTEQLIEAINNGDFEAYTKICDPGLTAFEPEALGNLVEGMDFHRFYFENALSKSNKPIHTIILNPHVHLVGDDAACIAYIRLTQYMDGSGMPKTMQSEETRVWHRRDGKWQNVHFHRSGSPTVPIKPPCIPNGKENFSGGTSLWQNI

CDK10 = CDK10 (Homo sapiens, UniProt Q15131); experiment: KiNativ, OCI cells live cell; assay type: cell-based; conditions: 2 h, labeling site Lys2, peptide […]
Chain of CDK10 (Q15131 whole entry): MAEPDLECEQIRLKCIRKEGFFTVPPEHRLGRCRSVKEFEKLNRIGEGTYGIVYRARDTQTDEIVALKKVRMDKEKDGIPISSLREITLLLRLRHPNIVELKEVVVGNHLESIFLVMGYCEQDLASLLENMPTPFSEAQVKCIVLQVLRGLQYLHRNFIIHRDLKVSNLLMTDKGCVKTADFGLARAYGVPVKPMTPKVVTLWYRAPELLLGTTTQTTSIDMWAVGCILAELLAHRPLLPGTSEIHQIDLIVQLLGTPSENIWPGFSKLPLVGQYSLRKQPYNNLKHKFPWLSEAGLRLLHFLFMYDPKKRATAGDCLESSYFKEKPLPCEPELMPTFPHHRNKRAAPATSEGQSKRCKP

Erk2 = Erk2 (Homo sapiens, UniProt P28482); experiment: KiNativ, OCI cells live cell; assay type: cell-based; conditions: 2 h, labeling site Lys2, peptide […]
Chain of Erk2 (P28482 whole entry): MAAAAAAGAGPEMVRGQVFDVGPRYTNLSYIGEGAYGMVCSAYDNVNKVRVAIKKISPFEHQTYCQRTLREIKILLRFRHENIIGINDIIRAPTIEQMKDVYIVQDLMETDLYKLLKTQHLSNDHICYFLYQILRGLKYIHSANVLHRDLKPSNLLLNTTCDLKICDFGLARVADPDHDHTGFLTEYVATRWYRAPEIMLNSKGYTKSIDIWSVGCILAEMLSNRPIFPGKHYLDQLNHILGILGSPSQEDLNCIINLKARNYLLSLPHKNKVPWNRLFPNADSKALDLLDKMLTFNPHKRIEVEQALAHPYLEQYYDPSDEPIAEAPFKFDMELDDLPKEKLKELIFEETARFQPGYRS

MARK3 = MARK3 (Homo sapiens, UniProt P27448); experiment: KiNativ, OCI cells live cell; assay type: cell-based; conditions: 2 h, labeling site Lys1, peptide […]
Chain of MARK3 (P27448 whole entry): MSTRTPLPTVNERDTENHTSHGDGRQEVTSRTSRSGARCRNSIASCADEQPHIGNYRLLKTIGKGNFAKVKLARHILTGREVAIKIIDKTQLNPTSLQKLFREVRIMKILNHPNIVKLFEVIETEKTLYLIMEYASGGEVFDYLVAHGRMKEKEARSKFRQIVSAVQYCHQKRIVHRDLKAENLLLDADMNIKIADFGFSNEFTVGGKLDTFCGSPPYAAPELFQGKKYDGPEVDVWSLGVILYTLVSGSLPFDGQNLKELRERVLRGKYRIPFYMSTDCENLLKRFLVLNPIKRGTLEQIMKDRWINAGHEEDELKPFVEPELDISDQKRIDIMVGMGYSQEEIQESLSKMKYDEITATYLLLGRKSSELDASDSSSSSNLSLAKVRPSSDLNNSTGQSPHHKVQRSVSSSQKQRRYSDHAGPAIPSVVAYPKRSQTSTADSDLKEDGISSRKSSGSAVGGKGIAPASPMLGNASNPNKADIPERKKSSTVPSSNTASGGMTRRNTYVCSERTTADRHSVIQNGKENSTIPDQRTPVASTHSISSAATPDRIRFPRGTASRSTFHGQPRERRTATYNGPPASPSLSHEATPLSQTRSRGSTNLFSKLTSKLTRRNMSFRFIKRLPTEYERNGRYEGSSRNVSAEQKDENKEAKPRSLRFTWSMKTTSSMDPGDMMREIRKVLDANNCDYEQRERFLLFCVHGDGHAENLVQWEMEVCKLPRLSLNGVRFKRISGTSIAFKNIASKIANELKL

PEK = PEK (Homo sapiens, UniProt Q9NZJ5); experiment: KiNativ, OCI cells live cell; assay type: cell-based; conditions: 2 h, labeling site Lys2, peptide […]
PIK3C2B = PIK3C2B (Homo sapiens, UniProt O00750); experiment: KiNativ, OCI cells live cell; assay type: cell-based; conditions: 2 h, labeling site ATP, peptide […]
Chain of PIK3C2B (O00750 whole entry): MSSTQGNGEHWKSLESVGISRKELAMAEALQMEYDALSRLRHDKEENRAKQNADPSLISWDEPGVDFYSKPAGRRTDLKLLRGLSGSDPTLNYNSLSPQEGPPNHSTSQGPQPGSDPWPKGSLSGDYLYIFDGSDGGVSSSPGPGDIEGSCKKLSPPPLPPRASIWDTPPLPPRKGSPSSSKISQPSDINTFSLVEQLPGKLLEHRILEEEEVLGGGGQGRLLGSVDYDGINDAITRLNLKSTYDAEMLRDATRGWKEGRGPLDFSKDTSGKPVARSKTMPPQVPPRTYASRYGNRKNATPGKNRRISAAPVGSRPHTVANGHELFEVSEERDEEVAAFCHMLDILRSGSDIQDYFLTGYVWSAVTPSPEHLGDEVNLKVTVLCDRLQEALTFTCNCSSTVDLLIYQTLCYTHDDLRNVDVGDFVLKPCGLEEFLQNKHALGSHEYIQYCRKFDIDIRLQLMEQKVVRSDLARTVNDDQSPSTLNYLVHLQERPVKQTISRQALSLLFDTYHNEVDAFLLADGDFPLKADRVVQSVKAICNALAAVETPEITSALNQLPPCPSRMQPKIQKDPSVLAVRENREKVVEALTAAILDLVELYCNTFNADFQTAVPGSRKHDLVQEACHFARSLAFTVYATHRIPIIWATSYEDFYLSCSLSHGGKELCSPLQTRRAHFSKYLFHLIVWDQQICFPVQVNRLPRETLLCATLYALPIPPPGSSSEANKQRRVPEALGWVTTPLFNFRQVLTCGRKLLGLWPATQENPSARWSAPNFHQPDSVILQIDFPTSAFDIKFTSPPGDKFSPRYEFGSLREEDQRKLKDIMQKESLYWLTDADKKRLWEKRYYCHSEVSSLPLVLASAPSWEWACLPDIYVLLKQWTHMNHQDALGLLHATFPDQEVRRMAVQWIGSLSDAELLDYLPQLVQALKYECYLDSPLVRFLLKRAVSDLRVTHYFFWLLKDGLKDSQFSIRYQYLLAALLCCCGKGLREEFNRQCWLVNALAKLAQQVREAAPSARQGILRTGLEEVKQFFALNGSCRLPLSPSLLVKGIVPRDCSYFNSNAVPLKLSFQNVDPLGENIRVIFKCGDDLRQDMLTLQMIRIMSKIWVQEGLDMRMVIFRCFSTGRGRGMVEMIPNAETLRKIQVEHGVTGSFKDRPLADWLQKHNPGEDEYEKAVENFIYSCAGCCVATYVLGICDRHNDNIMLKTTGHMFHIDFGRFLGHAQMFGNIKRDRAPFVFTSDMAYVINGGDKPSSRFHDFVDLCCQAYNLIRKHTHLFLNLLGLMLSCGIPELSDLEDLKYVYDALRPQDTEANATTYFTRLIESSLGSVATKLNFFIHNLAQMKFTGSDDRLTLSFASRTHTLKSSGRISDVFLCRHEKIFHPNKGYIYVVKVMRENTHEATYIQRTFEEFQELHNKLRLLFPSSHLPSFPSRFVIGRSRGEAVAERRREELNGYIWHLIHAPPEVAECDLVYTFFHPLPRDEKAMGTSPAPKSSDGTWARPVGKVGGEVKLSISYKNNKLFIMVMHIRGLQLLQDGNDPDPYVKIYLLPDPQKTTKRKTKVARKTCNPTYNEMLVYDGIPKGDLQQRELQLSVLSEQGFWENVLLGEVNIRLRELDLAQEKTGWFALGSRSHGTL

[2] = system: ZC1/HGK, ZC2/TNIK, ZC3/MINK; experiment: KiNativ, OCI cells live cell; assay type: cell-based, human; conditions: labeling site Lys2, peptide DIKGQNVLLTENAEVK
CDK4 = CDK4 (Homo sapiens, UniProt P11802); experiment: KdELECT binding assay; design: purchased Eurofins DiscoverX
Chain of CDK4 (P11802 whole entry): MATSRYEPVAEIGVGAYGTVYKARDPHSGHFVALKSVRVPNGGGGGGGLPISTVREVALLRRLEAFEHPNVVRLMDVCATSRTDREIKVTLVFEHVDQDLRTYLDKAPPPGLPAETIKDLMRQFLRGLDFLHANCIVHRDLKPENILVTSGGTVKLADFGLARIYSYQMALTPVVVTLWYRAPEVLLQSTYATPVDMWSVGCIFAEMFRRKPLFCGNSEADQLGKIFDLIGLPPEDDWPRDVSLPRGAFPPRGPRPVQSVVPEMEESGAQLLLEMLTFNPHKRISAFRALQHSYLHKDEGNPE

ACK1 = ACK1 (Homo sapiens, UniProt Q07912); experiment: Kinase assay by Reaction Biology; assay type: biochemical; design: purchased Eurofins DiscoverX

T1 sequence (O60674 whole entry): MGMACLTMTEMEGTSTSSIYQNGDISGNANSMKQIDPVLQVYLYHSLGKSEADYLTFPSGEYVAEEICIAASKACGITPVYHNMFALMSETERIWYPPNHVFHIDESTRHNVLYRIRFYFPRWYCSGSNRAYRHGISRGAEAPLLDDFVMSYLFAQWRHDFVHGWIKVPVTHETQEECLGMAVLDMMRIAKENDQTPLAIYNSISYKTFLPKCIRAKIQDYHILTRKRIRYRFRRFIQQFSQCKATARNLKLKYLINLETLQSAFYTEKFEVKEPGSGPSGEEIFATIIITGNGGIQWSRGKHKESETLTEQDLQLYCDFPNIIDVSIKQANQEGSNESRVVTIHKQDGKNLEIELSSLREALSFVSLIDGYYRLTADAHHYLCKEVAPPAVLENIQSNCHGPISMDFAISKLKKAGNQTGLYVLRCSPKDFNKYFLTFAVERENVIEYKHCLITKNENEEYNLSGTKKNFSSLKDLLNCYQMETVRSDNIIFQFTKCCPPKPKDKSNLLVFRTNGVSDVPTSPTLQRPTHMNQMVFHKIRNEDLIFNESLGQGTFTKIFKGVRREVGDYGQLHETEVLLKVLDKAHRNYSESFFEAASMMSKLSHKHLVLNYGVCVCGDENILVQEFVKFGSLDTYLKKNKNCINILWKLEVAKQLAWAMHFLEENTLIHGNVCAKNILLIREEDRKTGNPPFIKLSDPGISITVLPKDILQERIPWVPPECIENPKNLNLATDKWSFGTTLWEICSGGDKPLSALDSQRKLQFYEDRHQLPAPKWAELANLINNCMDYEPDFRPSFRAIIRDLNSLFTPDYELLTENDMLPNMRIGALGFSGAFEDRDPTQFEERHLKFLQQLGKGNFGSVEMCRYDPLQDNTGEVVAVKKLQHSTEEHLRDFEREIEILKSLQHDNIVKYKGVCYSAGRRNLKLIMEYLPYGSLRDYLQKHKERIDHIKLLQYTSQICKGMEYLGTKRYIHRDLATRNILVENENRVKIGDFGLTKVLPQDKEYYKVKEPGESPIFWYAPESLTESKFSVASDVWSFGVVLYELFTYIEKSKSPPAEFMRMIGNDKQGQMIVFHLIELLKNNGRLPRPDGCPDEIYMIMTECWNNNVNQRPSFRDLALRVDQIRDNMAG

For `CN1CCN(Cc2ccc(Nc3ncc(Cl)c(Nc4ccccc4S(=O)(=O)N(C)C)n3)cc2)CC1` [TP-0903], the Kd (JAK2) was less than 5 nM, the “Concentration inhibiting colony formation of CD34+ cells” value (cord blood CD34+ cells) was 200 nM and the “Concentrations not cytotoxic to HS5 human MSCs” value (HS5 human MSCs) was less than 250 nM. The “Peripheral blood GFP signal compared with gilteritinib” value [1] was “significantly lower”, the inhibition at 0.1 µM (CaMK2d) was 34.5% and the inhibition at 0.1 µM (CDK10) was 10%. It also gave an inhibition at 0.1 µM (Erk2) of 22.7%, an inhibition at 0.1 µM (MARK3) of 47% and an inhibition at 0.1 µM (PEK) of -9.6%. It also gave an inhibition at 0.1 µM (PIK3C2B) of 0.282%, an Inhibition [2] of -42.0% and a Kd (CDK4) of less than 5 nM. It also gave an IC50 (ACK1) of 30.7 nM.
